Reference: patent US20080103164A1, “USEFUL COMPOUNDS FOR HPV INFECTION” (priority 2004, published 2008)

These molecules were tested on episomal HPV-16 DNA in W12-20850 cells (assay: W-12 cellular assay: episomal HPV-16 DNA quantified by hybrid capture in W12-20850 cells). Conditions: Human papillomavirus 16, 96 h, four days incubation, inhibition of episomal HPV-16 DNA relative to untreated control.
Type: cell-based, HPV16
Description: Compounds of the current invention are believed useful in the treatment and/or prophylaxis of conditions and diseases associated with HPV infection. Activity mediated through HPV was determined using the following W-12 cellular assay. The […] cell line used contains HPV16 DNA and was derived from a low-grade cervical dysplasia tissue by Margaret Stanley and subsequently clonally selected by Paul Lambert (University of Wisconsin). One of these clones, […]-20850, contains 1000 copies of episomal HPV16 DNA and was used in the cell-based assay. […]-20850 cells were routinely cultured with a gamma-irradiated (6000 rads) feeder layer of 3T3 cells. Assays, however, were run in the absence of a 3T3 feeder layer. […]-20850 and 3T3 cells were routinely split when they were sub-confluent. […]-20850 were grown in […] Medium which is constituted of 25% DMEM (Gibco BRL, Cat # 12430-047), 75% F12 Media (Gibco BRL, Cat # 11765-021) and 2.5% FBS. The additives include […] Adenine (Sigma, Cat # A-9795), […] Hydrocortisone (Calbiochem, Cat # 386698), […] Bovine Insulin (Sigma, Cat # 1-1882), 8.4 ng/ml cholera toxin (Fluka, Cat # 26694) and 10 ng/ml EGF (Invitrogen, Cat # 13247-051). 3T3 cells were grown in DMEM containing 10% FBS. Cell lines were incubated at 37° C., in the presence of 5% CO2. For the assay, […]-20850 cells were seeded into a 96 well plate-containing compound. Plates were incubated at 37° C. in the presence of 5% CO2, for four days. On the fourth day, cells were lysed and the amount of episomal HPV-16 DNA was quantified using a non-radioactive hybrid capture technique with HPV-16 specific capture and detection probes. The percent inhibition relative to untreated control cells was then determined. The hybrid capture assay is run in a 96 well plate format. Hybridization plates (Nunc Maxisorb Cat # 450320) were coated with a mixture of capture probe and ReactiBind solution for at least 4 hours and then washed with 0.2×SSC, 0.05% Tween-20 (SSCT) prior to blocking with 150 μl/well of 0.2 N NaOH, 1% Igepal, 10 mg/ml hsDNA for 6-8 hours. The hybridization was carried out by mixing 27 μl of lysed cells with 45 μl of denatured detection probe in 6M guanidine isothiocyanate. To prevent evaporation, 50 μl of mineral oil was added to each well. The plate was then heated to 90° C. for 6.5 minutes and the hybridization continued at 42° C. overnight. Assay plates were washed 6 times with SSC/T. Anti-digoxigenin HRP-conjugated Ab (Boehringer Mannheim 1207733, 1:5000) was incubated in the wells for 30 min at room temperature and washed with PBS/0.05% Tween-20. SuperSignal LBA substrate (Pierce Cat # 37070) was added, and chemiluminescence was measured using Wallac 1420 Victor plate reader.

In order of falling IC50:
1. c1cncc(-c2ccnc(N3CCc4c([nH]c5ccccc45)C3c3ccc4c(c3)CCO4)n2)c1 (stereo not drawn) [Example 37, 1-(2,3-dihydro-1-benzofuran-5-yl)-2-[4-(3-pyridinyl)-2-pyrimidinyl]-2,3,4,9-tetrahydro-1H-β-carboline]  4000 nM
2. c1ccc2c3c([nH]c2c1)C(c1ccc2c(c1)CCO2)N(c1nccc(-n2ccnc2)n1)CC3 (stereo not drawn) [Example 38, 1-(2,3-dihydro-1-benzofuran-5-yl)-2-[4-(1H-imidazol-1-yl)-2-pyrimidinyl]-2,3,4,9-tetrahydro-1H-β-carboline]  3000 nM
3. Cc1cn(-c2ccnc(N3CCc4c([nH]c5ccccc45)C3c3ccc4c(c3)CCO4)n2)cn1 (stereo not drawn) [Example 39, 1-(2,3-dihydro-1-benzofuran-5-yl)-2-[4-(4-methyl-1H-imidazol-1-yl)-2-pyrimidinyl]-2,3,4,9-tetrahydro-1H-β-carboline]  2000 nM
